From paper PMC5795052 (Open Biology, 2018)

Key:
[1] = target: T1, AVPR1A (Homo sapiens, UniProt P37288); test: β-arrestin 2 recruitment assay (PRESTO-Tango) for AVPR1A without ACKR3 co-expression; type: cell-based; parameters: FLAG (N); Tango module (C-terminal fusion of the PRESTO-Tango plasmid); host or cells: HTLA cells (HEK293 line with tTA-dependent luciferase reporter and β-arrestin 2–TEV fusion); settings: AVPR1A-Tango/pcDNA3; n = 3; figure 9c
Source text: (§1) The human AVPR1A cDNA sequence was from the AVPR1A-TANGO plasmid (Addgene, plasmid #66225). The hRLuc cDNA was PCR-amplified from pIRES-Myc-hCXCR4-Rluc, which was generously provided by Dr Michel Bouvier, with primers carrying the AgeI and XbaI sites at either end, respectively, and ligated with the C-terminus of AVPR1A at the corresponding sites. Human CXCR4 and ACKR3 cDNAs were from the CXCR4-TANGO (Addgene, plasmid #66262) and the ACKR3-TANGO (Addgene, plasmid #66265) plasmids. The EYFP cDNA was PCR-amplified from pEYFP with primers harbouring AgeI and XbaI sites and ligated with the C-terminus of ACKR3. All plasmids were confirmed by sequencing.
(§2) hVSMCs (primary aortic smooth muscle cells, ATCC PCS-100-012), A7r5 cells (ATCC-CRL-1444) and HEK293T cells (ATCC-CRL-11268) were purchased from American Type Culture Collection. hVSMCs were cultured in vascular basal media (ATCC PCS-100-030) supplemented with the vascular smooth muscle growth kit (ATCC PCS-100-042), containing 100 U ml^−1 penicillin and 100 µg ml^−1 streptomycin. hVSMCs were used between passages 2–5. HEK293T and A7r5 cells were cultured in high-glucose Dulbecco's Modified Eagle's Medium containing 10 mg ml^−1 sodium pyruvate, 2 mM L-glutamine, 10% (vol/vol) FBS, 1× non-essential amino acids, 100 U ml^−1 penicillin and 100 µg ml^−1 streptomycin. […]
Target sequence in this assay (P37288 whole entry, the tested form may be a part): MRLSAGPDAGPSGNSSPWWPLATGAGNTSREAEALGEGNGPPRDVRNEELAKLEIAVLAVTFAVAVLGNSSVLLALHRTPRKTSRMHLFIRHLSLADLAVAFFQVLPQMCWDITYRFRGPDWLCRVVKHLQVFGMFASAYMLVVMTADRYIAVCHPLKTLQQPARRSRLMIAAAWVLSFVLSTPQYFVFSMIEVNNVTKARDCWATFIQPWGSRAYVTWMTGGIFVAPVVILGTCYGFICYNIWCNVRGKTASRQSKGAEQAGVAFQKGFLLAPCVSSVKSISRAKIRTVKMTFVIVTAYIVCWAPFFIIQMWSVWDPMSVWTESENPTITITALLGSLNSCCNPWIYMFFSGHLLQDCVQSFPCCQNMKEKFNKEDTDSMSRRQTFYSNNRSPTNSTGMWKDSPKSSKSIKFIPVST

[2] = tested on: rat mesenteric arteries (PE-induced vasoconstriction); test: Pressure myography, PE-preconstricted isolated rat mesenteric arteries; settings: 10 µM ligand; for effect on PE-induced vasoconstriction, comparison of ACKR3 ligands: 2 µM PE, figure 1d, vehicle n = 5, CXCL11 n = 7, CXCL11 (3–73) n = 9, CXCL12 n = 14, p < 0.05 vehicle versus CXCL11 and CXCL12, p > 0.05 CXCL11 versus CXCL12; for effect on PE-induced vasoconstriction (outer diameter % change): arteries at 80 mmHg preconstricted with 2 µM PE, figure 1a, vehicle n = 4, CXCL11 n = 6, ubiquitin n = 7, *p < 0.05 versus vehicle
Protocol: (§5) (a,b) Pressure myography with rat mesenteric arteries. […] (d) Pressure myography experiments as in (a); PE-induced vasoconstriction. All ACKR3 ligands were tested at a concentration of 10 µM. […] All ACKR3 ligands were tested at a concentration of 10 µM.
(§6) Pressure myography was performed as described in detail previously with slight modifications [7, 63]. Male Sprague–Dawley rats (Harlan) were anaesthetized with 3.5% isoflurane. The mesentery was immediately removed and placed in 130 mM NaCl, 4.7 mM KCl, 1.18 mM KH2PO4, 1.17 mM MgSO4, 14.9 mM NaHCO3, 5.5 mM D-glucose, 0.026 mM EDTA and 1.16 mM CaCl2 aerated with 95% O2, 5% CO2 at 37°C. The animal was then euthanized by cardiectomy and bilateral decompression of the lungs. Third- or fourth-order mesenteric arteries were dissected free from the mesentery, mounted onto two glass cannulae with United States Pharmacopeia (USP) scale 11-0 sutures and pressurized to 80 mmHg in a DMT 110P pressure myograph system (DMT-USA). The intraluminal solution and the vessel bath solution were the same as described before. The vessel bath solution was continuously aerated with 95% O2, 5% CO2 throughout the experiment.

[3] = tested on: rat mesenteric arteries (aVP-induced vasoconstriction); test: Pressure myography, aVP-preconstricted isolated rat mesenteric arteries; settings: 10 µM ligand
Protocol: as §5, §6

[4] = target: T1, AVPR1A; test: β-arrestin 2 recruitment assay (PRESTO-Tango) for AVPR1A co-expressed with HA-ACKR3; type: cell-based; parameters: FLAG (N); Tango module (C-terminal fusion of the PRESTO-Tango plasmid); ACKR3 cDNA from plasmid #66265; host or cells: HTLA cells (HEK293 line with tTA-dependent luciferase reporter and β-arrestin 2–TEV fusion); settings: n = 3, figure 9c
Source text: as §1, §2
Target sequence in this assay (P37288 whole entry, the tested form may be a part): as above
Target sequence in this assay (P25106 whole entry partner, the tested form may be a part): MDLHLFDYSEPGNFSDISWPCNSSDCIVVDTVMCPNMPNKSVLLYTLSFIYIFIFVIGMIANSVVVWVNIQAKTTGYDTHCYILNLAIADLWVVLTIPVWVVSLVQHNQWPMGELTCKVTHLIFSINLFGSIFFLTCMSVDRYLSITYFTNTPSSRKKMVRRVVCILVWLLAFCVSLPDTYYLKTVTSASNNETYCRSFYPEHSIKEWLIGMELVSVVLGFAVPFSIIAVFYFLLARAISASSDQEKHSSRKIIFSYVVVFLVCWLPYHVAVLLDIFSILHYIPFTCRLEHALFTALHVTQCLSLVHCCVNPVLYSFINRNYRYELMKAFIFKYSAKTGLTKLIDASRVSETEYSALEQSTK

[5] = tested on: ACKR3; test: β-arrestin 2 recruitment assay (PRESTO-Tango) for ACKR3 co-expressed with pcDNA3 or HA-AVPR1A; type: cell-based, human; settings: ACKR3-Tango/HA-AVPR1A versus ACKR3-Tango/pcDNA3; n = 3; figure 9e,f
Source text: as §1
(§3) hVSMCs (primary aortic smooth muscle cells, ATCC PCS-100-012), A7r5 cells (ATCC-CRL-1444) and HEK293T cells (ATCC-CRL-11268) were purchased from American Type Culture Collection. hVSMCs were cultured in vascular basal media (ATCC PCS-100-030) supplemented with the vascular smooth muscle growth kit (ATCC PCS-100-042), containing 100 U ml^−1 penicillin and 100 µg ml^−1 streptomycin. hVSMCs were used between passages 2–5. HEK293T and A7r5 cells were cultured in high-glucose Dulbecco's Modified Eagle's Medium containing 10 mg ml^−1 sodium pyruvate, 2 mM L-glutamine, 10% (vol/vol) FBS, 1× non-essential amino acids, 100 U ml^−1 penicillin and 100 µg ml^−1 streptomycin. The HTLA cell line, a HEK293 cell line stably expressing a tTA-dependent luciferase reporter and a β-arrestin 2–TEV fusion gene were generously provided by the laboratory of Dr Bryan Roth and maintained in high-glucose Dulbecco's Modified Eagle's Medium supplemented with 10% (vol/vol) FBS, 1× non-essential amino acids, 100 U ml^−1 penicillin, 100 µg ml^−1 streptomycin, 50 µg ml^−1 hygromycin B and 2 µg ml^−1 puromycin. All cells were cultured in a humidified environment at 37°C, 5% CO2.
The PRESTO-Tango (parallel receptorome expression and screening via transcriptional output, with transcriptional activation following arrestin translocation) assay was performed as recently described. The Tango plasmids were a gift from Dr Bryan Roth (all from Addgene). HTLA cells (2.5 × 10^5 per well) were seeded in a six-well plate and transfected with 1.5 µg of the Tango plasmids using Lipofectamine 3000 (ThermoScientific). The following day, transfected HTLA cells (1 × 10^5 cells per well) were plated onto poly-L-lysine precoated 96-well microplates and allowed to attach to the plate surface for at least 4 h prior to treatment. Proteins used for treatment were prepared in twice the final concentration in culture media, added at a 1 : 1 vol/vol ratio and incubated overnight at 37°C, 5% CO2 in a humidified environment. The following morning, media were removed from cell culture plates and replaced with a 100 µl 1 : 5 mixture of Bright-Glo (Promega) and 1× HBSS, 20 mM HEPES solution. Plates were then incubated at room temperature before measuring luminescence on a Biotek Synergy II plate reader.

[6] = tested on: ACKR3; parameters: method as in PMID 27875312; settings: BRET-based assay; CXCL12 versus CXCL11; ref [30]; cited from earlier work
[7] = tested on: ACKR3; test: β-arrestin 2 recruitment assay (PRESTO-Tango) for ACKR3; type: cell-based, human
Source text: as §1
as §3, with “All cells were cultured in a humidified environment at 37°C, 5% CO2.” left out
The PRESTO-Tango (parallel receptorome expression and screening via transcriptional output, with transcriptional activation following arrestin translocation) assay was performed as recently described. […] Plates were then incubated at room temperature before measuring luminescence on a Biotek Synergy II plate reader.

[8] = tested on: aVP-induced IP3 production in hVSMC; test: IP3 production (ELISA) in hVSMC upon aVP stimulation; type: cell-based, human; settings: ACKR3 ligands 1 µM, 15 min, then 1 µM aVP for 5 min; n = 4; figure 1f; *p < 0.05 versus vehicle-treated cells
Protocol: as §3
ACKR3 and CXCR4 siRNA gene silencing was performed as described previously. In brief, cells were grown in 2 ml Accell siRNA delivery media per well (Dharmacon) in six-well plates (Nunc). Commercially available Accell ACKR3 and CXCR4 siRNA were reconstituted with 1× siRNA buffer to a stock concentration of 100 µM. Cells were then transfected with 1 µM ACKR3/CXCR4 siRNA and incubated for 72 h at 37°C, 5% CO2. Accell NT-siRNA pool was used as a negative control. After 72 h, cells were assayed for receptor cell surface expression and used for signalling experiments.
IP3 enzyme-linked immunosorbent assays were purchased from LS Bio and performed as per the manufacturer's protocol (LS BIO F10644). In brief, hVSMCs were grown to confluency in six-well dishes (Nunc) and then treated as described in the Results section. Cells were then washed once with cold PBS, 225 µl of cold PBS was added to each well and cells were lysed by ultrasonication. The cell lysate was centrifuged for 10 min at 4°C at 1500g to remove cellular debris. The total protein concentration in the supernatant was determined with the Bio-Rad DC Protein Assay as per the manufacturer's protocol (Bio-Rad 500-0116). Equivalent amounts of total protein were added to the ELISA strips diluted in the provided sample diluent (1 : 5 and 1 : 10). The assay was then completed as per the manufacturer's protocol. Optical densities were read on a Biotek Synergy II microplate reader (absorbance at 450 nm), and IP3 concentrations were extrapolated from the standard curve.

[9] = tested on: ACKR3; parameters: method as in 2 sources, one per row (each row's own in cited_ref): ref [29]–[32] = [29]; PMID 16940167; doi:10.1084/jem.20052144; 29 Burns JM et al. 2006 A novel chemokine receptor for SDF-1 and I-TAC involved in cell survival, cell adhesion, and tumor development . J. Exp. Med. 203 , 2201 – 2213 . ( doi:10.1084/jem.20052144 ) 1 || [30]; PMID 27875312; doi:10.1074/jbc.M116.762252; 30 Benredjem B , Girard M , Rhainds D , St-Onge G , Heveker N 2017 Mutational analysis of atypical chemokine receptor 3 (ACKR3/CXCR7) interaction with its chemokine ligands CXCL11 and CXCL12 . J. Biol || [31]; PMID 9918548; 31 Gifford AN , Bruneus M , Gatley SJ , Lan R , Makriyannis A , Volkow ND 1999 Large receptor reserve for cannabinoid actions in the central nervous system . J. Pharmacol. Exp. Ther. 288 , 478 – 483 . || [32]; PMID 8779988; doi:10.1152/ajplung.1996.270.2.L199; 32 Ethier MF , Schaefer OP , Samant N , Yamaguchi H , Madison JM 1996 Muscarinic receptor reserve for inhibition of cAMP accumulation in bovine trachealis cells . Am. J. Physiol. 270 , L199 – L207 . 8 ||| ref [24] = [24]; PMID 21757744; doi:10.1074/jbc.M111.233742; 24 Saini V , Staren DM , Ziarek JJ , Nashaat ZN , Campbell EM , Volkman BF , Marchese A , Majetschak M 2011 The CXC chemokine receptor 4 ligands ubiquitin and stromal cell-derived factor-1alpha functi; settings: ref [24]; cited from earlier work
[10] = tested on: ACKR3; test: Receptor internalization by flow cytometry, ACKR3; type: cell-based, human; settings: hVSMC, 1 µM agonist, up to 60 min; n = 3; figure 10c
Protocol: (§4) The cells were washed once with ice cold DPBS, blocked and stained with rabbit anti-AVPR1A (Bioss BS-11598R) and mouse anti-ACKR3 (R&D MAB42273) antibodies at 1 : 200 dilution for 1 h on ice. Cells were then washed twice with FACS wash buffer (1× PBS, 2% FBS and 0.01% NaN3), and secondary antibodies were added at a 1 : 500 dilution and incubated for 30 min on ice (donkey anti-rabbit Alexa Fluor 647, Invitrogen A-31573 and donkey anti-mouse Alexa Fluor 488, Invitrogen A-21202). Cells were washed twice with FACS wash buffer and then fixed with 4% paraformaldehyde at room temperature for 15 min. After two additional washes, the cells were counted on a BD FACS Canto II (BD Biosciences) flow cytometer. The fluorescence intensities of at least 3 × 10^4 cells were recorded and analysed using the FlowJo software (Tree Star).

[11] = tested on: AVPR1A; test: Receptor internalization by flow cytometry, AVPR1A; type: cell-based, human; settings: hVSMC, 1 µM agonist, up to 60 min; n = 3; figure 10b
Protocol: as §4

Substance | β-arrestin 2 recruitment to AVPR1A-Tango by chemokines, absence of ACKR3 [1] | effect on PE-induced vasoconstriction, comparison of ACKR3 ligands [2] | effect on aVP-induced vasoconstriction, comparison of ACKR3 ligands ([3]; 0.5 nM aVP, figure 1e, vehicle n = 4, CXCL11 n = 3, CXCL11 (3–73) n = 3, CXCL12 n = 3, p < 0.05 vehicle versus CXCL11 and CXCL12, p > 0.05 CXCL11 versus CXCL12) | β-arrestin 2 recruitment to AVPR1A-Tango by chemokines, presence of ACKR3 [4] | effect of AVPR1A co-expression on efficacy to recruit β-arrestin 2 to ACKR3-Tango [5] | effect of AVPR1A co-expression on potency to recruit β-arrestin 2 to ACKR3-Tango [5] | potency to induce β-arrestin recruitment to ACKR3, fold higher than CXCL11 [6] | potency to recruit β-arrestin 2 to ACKR3, fold higher than CXCL11 ([7]; CXCL12 versus CXCL11, p < 0.01) | efficacy for β-arrestin 2 recruitment to ACKR3 (in words) ([7]; HTLA cells, n = 3, CXCL11 versus CXCL12) | EC50 ([7]; HTLA cells, overnight at 37°C, luminescence, n = 3 independent experiments, 95% confidence interval in brackets, read-out: EC50 (95% CI) β-arrestin 2 recruitment to ACKR3) [nM] | effect of ACKR3 ligand pretreatment on aVP-induced IP3 production [8] | binding to ACKR3 [9] | effect on PE-induced vasoconstriction (outer diameter % change) [2] | effect on aVP-induced vasoconstriction (outer diameter % change) ([3]; arteries at 80 mmHg preconstricted with 0.5 nM aVP, figure 1b, *p < 0.05 versus vehicle) | ACKR3 cell surface expression after agonist [10] | AVPR1A cell surface expression after agonist [11]
C-X-C chemokine ligand 12 [CXCL12] | did not induce β-arrestin 2 recruitment to AVPR1A-Tango | attenuated PE- and aVP-induced vasoconstriction to a similar degree | attenuated PE- and aVP-induced vasoconstriction to a similar degree | did not induce β-arrestin 2 recruitment to AVPR1A-Tango | significantly reduced the efficacy | without affecting the potency | twofold higher | 2.2 -fold | comparable efficacy | 1.3 | inhibited aVP-induced IP3 production | – | – | – | – | –
ubiquitin | – | – | – | – | – | – | – | – | – | – | – | does not bind to ACKR3 | enhanced PE-induced vasoconstriction | did not affect aVP-induced vasoconstriction | – | –
CXCL11: ACKR3 and CXCR3 agonist, from Protein Foundry | – | attenuated PE- and aVP-induced vasoconstriction to a similar degree | – | did not induce β-arrestin 2 recruitment to AVPR1A-Tango | significantly reduced the efficacy | without affecting the potency | – | – | – | – | – | – | antagonized PE-induced vasoconstriction | – | time-dependently reduced expression levels of both AVPR1A and ACKR3 | time-dependently reduced expression levels of both AVPR1A and ACKR3
